Type in all cases: functional
Experiment [1] deals with Solanum lycopersicum. The experiment can be described thus: Increase in crop yield in Cucumis sativus (cucumber) plants exposed to 90 L/ha compound fumigation treatment assessed as extra-large fruit yield (reference value: 7.2 ton/ha).
Experiment [2] relates to Digitaria sanguinalis. Briefly: Herbicidal activity against Digitaria sanguinalis (hairy crabgrass) in cucumber plants fields exposed to 180 L/ha compound fumigation treatment assessed as hand weeding time per plot (reference value: 258.3 hr/ha).
The subject of a further experiment is Arenaria serpyllifolia. The experiment can be described thus: Herbicidal activity against Arenaria serpyllifolia in tomato plants fields exposed to 180 L/ha compound fumigation treatment assessed as hand weeding time per plot relative to untreated control.
The test system of experiment [3] is Digitaria sanguinalis. The experiment can be described thus: Herbicidal activity against Digitaria sanguinalis (hairy crabgrass) in tomato plants fields exposed to 90 L/ha compound fumigation treatment assessed as hand weeding time per plot (reference value: 243.3 hr/ha).
In experiment [4] the test system is Solanum lycopersicum. The experiment can be described thus: Increase in crop yield in Solanum lycopersicum (tomato) plants exposed to 90 L/ha compound fumigation treatment assessed as large fruit yield (reference value: 15.2 ton/ha).
Experiment [5] concerns Digitaria sanguinalis. The experiment can be described thus: Herbicidal activity against Digitaria sanguinalis (hairy crabgrass) in tomato plants fields exposed to 120 L/ha compound fumigation treatment assessed as hand weeding time per plot (reference value: 243.3 hr/ha).

Consider `Cl/C=C/CCl` [1,3-DICHLOROPROPENE], for which the Crop_yield with Solanum lycopersicum [1] is given as 11.5 tons/ha; in the experiment with Solanum lycopersicum [4], 18.9 tons/ha. The Time in the experiment with Digitaria sanguinalis [2] is listed as 62.3 hr/ha; in the experiment with Digitaria sanguinalis [3] it was 85.6 hr/ha; in the experiment with Digitaria sanguinalis [5], 66.4 hr/ha. The Activity in the experiment on Arenaria serpyllifolia was found to be 45%.

Values taken from ChEMBL document CHEMBL3046912, “Effectiveness of 1,3-dichloropropene as an alternative to methyl bromide in rotations of tomato (Solanum lycopersicum) and cucumber (Cucumis sativus) in China” (2012).
